The target of test [1] is mutEGFR (D770_N771insSVD) (Homo sapiens, UniProt P00533, INS767SVD). Put plainly: Exon20-mutant-EGFR (D770_N771insSVD) TR-FRET kinase assay. Particulars: 2 mM ATP, 15 min preincubation. Type of test: biochemical. From the text: Inhibitory activity of compounds of the present invention against an Epidermal Growth Factor Receptor (EGFR) with an insertion of the amino acids sequence SVD between D770 and N771 (SEQ ID No. 5) was quantified employing the TR-FRET based kinase activity assay as described in the following paragraphs.
A recombinant fusion protein of N-terminal Glutathion-S-Transferase (GST) and a fragment of human EGFR variant (amino acids R669 to A1210 with insertion of the amino acids sequence SVD between D770 and N771 (SEQ ID No. 5) (“EGFR ins SVD”), expressed in Sf9 insect cells and purified via affinity chromatography using Glutathion Sepharose as described above, was used as a kinase. As substrate for the kinase reaction the biotinylated peptide biotin-Ahx-AEEEEYFELVAKKK (C-terminus in amide form) (SEQ ID No. 6) was used which can be purchased e.g. form the company Biosynthan GmbH (Berlin-Buch, Germany).
For the assay 50 nl of a 100-fold concentrated solution of the test compound in DMSO was pipetted into either a black low volume 384 well microtiter plate or a black 1536 well microtiter plate (both Greiner Bio-One, Frickenhausen, Germany), 2 μl of a solution of EGFR in aqueous assay buffer [50 mM Hepes pH 7.0, 10 mM MgCl2, 1 mM dithiothreitol, 0.5 mM EGTA, 0.3 mM activated sodium ortho-vanadate, 0.005% (w/v) bovine serum albumin, 0.005% (v/v) Tween-20] were added and the mixture was incubated for 15 min at 22° C. to allow pre binding of the test compounds to the enzyme before the start of the kinase reaction. […] The concentration of EGFR was adjusted depending of the activity of the enzyme lot and was chosen appropriate to have the assay in the linear range, typical concentration was 15 pg/μl. The reaction was stopped by the addition of 3 μl of a solution of HTRF detection reagents (83.3 nM streptavidine-XL665 [Cisbio Bioassays, Codolet, France] and 1.67 nM PT66-Tb-Cryptate, a terbium-cryptate labelled anti-phospho-tyrosine antibody from Cisbio Bioassays [instead of the PT66 Tb cryptate PT66 Eu Chelate from Perkin Elmer can also be used]) in an aqueous EDTA-solution (133.3 mM EDTA, 0.2% (w/v) bovine serum albumin in 50 mM HEPES pH 7.5).
The resulting mixture was incubated 1 h at 22° C. to allow the binding of the biotinylated phosphorylated peptide to the streptavidine-XL665 and the PT66-Tb-Cryptate. Subsequently, the amount of phosphorylated substrate was evaluated by measurement of the resonance energy transfer from the PT66-Tb-Cryptate to the streptavidine-XL665. Therefore, the fluorescence emissions at 620 nm and 665 nm after excitation at 337 nm were measured in a HTRF reader, e.g. a Pherastar (BMG Labtechnologies, Offenburg, Germany) or a Viewlux (Perkin-Elmer). The ratio of the emissions at 665 nm and at […] was taken as the measure for the amount of phosphorylated substrate. The data were normalised (enzyme reaction without inhibitor=0% inhibition, all other assay components but no enzyme=100% inhibition).
A general note: In TR-FRET formats the signal depends on donor and acceptor labels being close together.

Test [2] has as its target mutEGFR (D770_N771insNPG, T790). As to the kind of experiment: mutEGFR (D770_N771insNPG, T790) kinase assay. Type of test: biochemical, human.
The test system of the next test is BA/F3 (insSVD) cells. As to the kind of experiment: Ba/F3 cell survival assay (Cell Titer-Glo), EGFR-insSVD. Type of test: cell-based. The settings on record: without IL-3, with EGF. The procedure:
293T cells from ATCC were transfected with pBABEpuro expression constructs for WT EGFR or EGFR-insSVD, or EGFR-insSVD T790M, and pCL-Eco packaging vector using Fugene-6 transfection reagent from Promega. Plates were incubated at 37° C. for 48 h. Retrovirus was harvested by filtering the media supernatant through a 0.45 μm filter.
Ba/F3 cells purchased from DSMZ were grown in RPMI+10% FBS+10 ng/mL IL-3 and infected with filtered retroviral supernatant at a 1:2 dilution. Polybrene was added to a concentration of 8 μg/mL, plates were spun for 90 min, and incubated for 16 h at 37° C. 2 μg/mL puromycin was added to the infected cells 24 h after infection and cells were continually grown in the presence of puromycin and 10 ng/mL IL-3. Following stably expressing Ba/F3 cell lines were generated: Ba/F3-EGFR-WT, Ba/F3-EGFR-insSVD, Ba/F3-EGFR-insSVD T790M, (Ba/F3-vector-control).
For cell survival assays, Ba/F3 cells were grown to a density of 1-2 million cells per mL, spun down and resuspended in media without IL-3, and replated at a concentration of 200,000-500,000 cells per mL. The cells ectopically expressing WT EGFR, EGFR-insSVD, or EGFR-insSVD T790M were plated with 10 ng/mL Millipore Culture grade EGF. The cells ectopically expressing pBABEpuro empty vector were plated with 10 ng/mL IL-3.
2 days later, cells were plated in 50 μL in a 384 well plate at a concentration of 4000 cells per well for cells assayed in the absence of IL-3 and 2000 cells per well for cells assayed in the presence of IL-3. 100 nL of compound was added to each well using a 100 nL pin head, and plates were incubated at 37° C. for 48 h.
Cell viability was measured by adding 20 μL of Cell Titer-Glo Luminescent Cell Viability Reagent diluted 1:3 in PBS. Plates were sealed with Perkin Elmer Top-Seal, inverted several times to mix, and immediately centrifuged at 1000 rpm for 2 min. Plates were incubated in low light conditions for 8-10 min and luminescence was measured.
For orientation: ATP-based viability assays read luminescence as a measure of living cells.

Sequence of mutEGFR (D770_N771insNPG, T790) (P00533 with tags, fused parts or gaps INS770NPG limits assumed): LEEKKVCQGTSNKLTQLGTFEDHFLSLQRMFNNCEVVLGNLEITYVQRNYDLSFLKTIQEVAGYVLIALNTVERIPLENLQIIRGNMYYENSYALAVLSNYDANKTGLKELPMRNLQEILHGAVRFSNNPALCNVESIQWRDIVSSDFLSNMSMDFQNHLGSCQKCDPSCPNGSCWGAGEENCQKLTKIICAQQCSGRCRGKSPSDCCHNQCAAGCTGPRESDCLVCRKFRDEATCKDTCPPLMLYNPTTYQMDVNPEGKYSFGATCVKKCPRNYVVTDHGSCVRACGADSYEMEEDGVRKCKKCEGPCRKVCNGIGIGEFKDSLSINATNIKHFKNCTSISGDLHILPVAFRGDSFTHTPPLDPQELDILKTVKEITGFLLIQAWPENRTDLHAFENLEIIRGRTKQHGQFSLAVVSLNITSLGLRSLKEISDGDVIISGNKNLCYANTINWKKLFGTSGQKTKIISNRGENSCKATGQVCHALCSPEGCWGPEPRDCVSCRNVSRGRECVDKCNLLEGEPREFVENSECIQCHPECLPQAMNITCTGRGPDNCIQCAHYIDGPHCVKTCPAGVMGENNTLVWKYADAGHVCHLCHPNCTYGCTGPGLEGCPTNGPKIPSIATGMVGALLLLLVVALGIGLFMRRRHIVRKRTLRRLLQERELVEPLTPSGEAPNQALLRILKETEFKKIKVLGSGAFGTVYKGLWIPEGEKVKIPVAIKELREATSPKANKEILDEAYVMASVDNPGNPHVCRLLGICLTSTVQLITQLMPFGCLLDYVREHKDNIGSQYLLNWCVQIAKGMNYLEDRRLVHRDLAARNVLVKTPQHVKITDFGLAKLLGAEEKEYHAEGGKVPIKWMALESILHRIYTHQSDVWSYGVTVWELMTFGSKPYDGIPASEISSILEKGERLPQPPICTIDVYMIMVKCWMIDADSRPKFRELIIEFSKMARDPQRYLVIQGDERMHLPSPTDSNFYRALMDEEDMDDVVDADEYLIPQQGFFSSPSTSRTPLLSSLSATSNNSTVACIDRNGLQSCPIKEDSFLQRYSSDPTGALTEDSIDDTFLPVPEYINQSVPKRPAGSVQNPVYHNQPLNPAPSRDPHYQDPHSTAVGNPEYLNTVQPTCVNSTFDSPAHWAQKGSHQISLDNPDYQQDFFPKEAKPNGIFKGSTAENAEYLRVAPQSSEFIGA
Sequence of mutEGFR (D770_N771insSVD) (P00533 with tags, fused parts or gaps INS767SVD limits assumed): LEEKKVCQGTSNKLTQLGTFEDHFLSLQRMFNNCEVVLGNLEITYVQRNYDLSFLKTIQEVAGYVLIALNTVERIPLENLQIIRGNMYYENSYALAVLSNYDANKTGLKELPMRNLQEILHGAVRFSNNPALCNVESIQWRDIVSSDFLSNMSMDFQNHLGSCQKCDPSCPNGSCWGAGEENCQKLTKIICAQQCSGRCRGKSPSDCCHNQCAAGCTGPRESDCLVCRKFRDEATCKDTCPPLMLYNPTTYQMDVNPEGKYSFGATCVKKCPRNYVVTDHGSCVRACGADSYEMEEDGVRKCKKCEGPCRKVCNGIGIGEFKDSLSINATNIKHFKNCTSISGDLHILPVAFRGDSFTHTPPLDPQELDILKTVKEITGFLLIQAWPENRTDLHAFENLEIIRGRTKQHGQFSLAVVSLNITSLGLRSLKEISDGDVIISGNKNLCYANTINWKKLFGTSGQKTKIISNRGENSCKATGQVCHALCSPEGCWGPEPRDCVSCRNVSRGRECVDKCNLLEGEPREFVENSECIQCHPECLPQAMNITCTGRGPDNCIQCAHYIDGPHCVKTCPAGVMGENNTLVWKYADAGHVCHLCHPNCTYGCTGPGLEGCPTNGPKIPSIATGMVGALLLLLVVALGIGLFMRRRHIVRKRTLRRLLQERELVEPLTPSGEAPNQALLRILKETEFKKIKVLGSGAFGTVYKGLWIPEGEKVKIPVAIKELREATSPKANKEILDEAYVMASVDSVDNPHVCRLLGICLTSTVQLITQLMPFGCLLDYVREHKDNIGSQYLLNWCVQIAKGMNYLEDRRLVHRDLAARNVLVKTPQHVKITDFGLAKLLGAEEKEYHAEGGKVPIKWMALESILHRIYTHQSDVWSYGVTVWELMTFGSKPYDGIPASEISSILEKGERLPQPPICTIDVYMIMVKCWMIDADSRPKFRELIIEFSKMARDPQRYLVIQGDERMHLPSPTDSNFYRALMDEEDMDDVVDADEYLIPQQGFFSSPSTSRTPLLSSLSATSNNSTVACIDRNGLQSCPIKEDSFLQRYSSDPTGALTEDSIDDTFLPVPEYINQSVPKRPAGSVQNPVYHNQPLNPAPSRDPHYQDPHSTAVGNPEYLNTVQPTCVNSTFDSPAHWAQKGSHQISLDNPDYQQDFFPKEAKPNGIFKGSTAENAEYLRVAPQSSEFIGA

By IC50 is commonly meant the concentration at which inhibition is half-maximal. Consider `C=CC(=O)N1C[C@@H](N(C)CCN(C)C)C[C@H]1COc1cnccc1-c1[nH]c2cccnc2c1-c1ccccc1` (single isomer, unassigned) [Example 132], for which the IC50 in test [1] is 9.32 nM; in test [2] it was 27.5 nM; in the test on BA/F3 (insSVD) cells (48 h), 184 nM.
In the case of `C=CC(=O)N1CC[C@H]1COc1cnccc1-c1[nH]c2cccnc2c1-c1ccccc1` (single isomer, unassigned) [Example 139], the IC50 in test [1] was determined as 120 nM; in test [2] it was 492 nM; with BA/F3 (insSVD) cells (Mus musculus, BaF3, 48 h), 2520 nM.
The corresponding values for `C=CC(=O)N1CC[C@@H]1COc1cnccc1-c1[nH]c2cccnc2c1-c1ccccc1` (single isomer, unassigned) [Example 140] are 0.3 nM, 1.33 nM and 9.73 nM.
For `C=CS(=O)(=O)N1CC[C@H]1COc1cnccc1-c1[nH]c2cccnc2c1-c1ccccc1` (single isomer, unassigned) [Example 141] the same measures were 0.596 nM, 2.21 nM and 231 nM.
Turning to `C=CS(=O)(=O)N1CC[C@@H]1COc1cnccc1-c1[nH]c2cccnc2c1-c1ccccc1` (single isomer, unassigned) [Example 142], the 50% inhibitory concentration (IC50) in test [1] is less than 0.0725 nM; in test [2] it was 0.262 nM; in the test on BA/F3 (insSVD) cells (Mus musculus, BaF3, 48 h), 16 nM.
For `C=CC(=O)N1CC[C@H]1COc1cnccc1-c1[nH]c2cccnc2c1-c1cccc(C(F)(F)F)c1` (single isomer, unassigned) [Example 143] the same measures were 129 nM, 678 nM and 3840 nM.
The corresponding values for `C=CS(=O)(=O)N1CC[C@H]1COc1cnccc1-c1[nH]c2cccnc2c1-c1cccc(C(F)(F)F)c1` (single isomer, unassigned) [Example 144] are 5.12 nM, 19 nM and 1520 nM.
The corresponding values for `C=CC(=O)N(C)C[C@H](C)Oc1cnccc1-c1[nH]c2cccnc2c1-c1ccccc1` (stereo in doubt) [Example 133, N-methyl-N-[2-{[4-(3-phenyl-1H-pyrrolo[3,2-b]pyridin-2-yl)pyridin-3-yl]oxy}propyl]prop-2-enamide] are 3470 nM, 5590 nM and 9000 nM.
As to `C=CS(=O)(=O)N(C)C[C@H](C)Oc1cnccc1-c1[nH]c2cccnc2c1-c1ccccc1` (stereo in doubt) [Example 134, N-methyl-N—[-2-{[4-(3-phenyl-1H-pyrrolo[3,2-b]pyridin-2-yl)pyridin-3-yl]oxy}propyl]ethenesulfonamide], the IC50 in test [1] is 22 nM; in test [2] it was 101 nM; in the test with BA/F3 (insSVD) cells (Mus musculus, BaF3, 48 h), 622 nM.
The corresponding values for `C=CC(=O)N(C)CCOc1cnccc1-c1[nH]c2cccnc2c1-c1ccc2cc[nH]c2c1` [Example 16, N-[2-({4-[3-(1H-indol-6-yl)-1H-pyrrolo[3,2-b]pyridin-2-yl]pyridin-3-yl}oxy)ethyl]-N-methylprop-2-enamide] are 7.65 nM, 32.3 nM and 584 nM.
The corresponding values for `C=CC(=O)N(C)CCOc1cnccc1-c1[nH]c2cccnc2c1-c1cc(Cl)ccc1F` [Example 43, N-[2-({4-[3-(5-chloro-2-fluorophenyl)-1H-pyrrolo[3,2-b]pyridin-2-yl]pyridin-3-yl}oxy)ethyl]-N-methylprop-2-enamide] are 11.7 nM, 33.2 nM and 538 nM.
The corresponding values for `C=CC(=O)N(C)CCOc1cnccc1-c1[nH]c2cccnc2c1-c1ccc2ccsc2c1` [Example 44, N-[2-({4-[3-(1-benzothiophen-6-yl)-1H-pyrrolo[3,2-b]pyridin-2-yl]pyridin-3-yl}oxy)ethyl]-N-methylprop-2-enamide] are 21.1 nM, 64 nM and 999 nM.
Consider `C=CC(=O)N(C)CCOc1cnccc1-c1[nH]c2cccnc2c1-c1cccc(CC)c1` [Example 45, N-[2-({4-[3-(3-ethylphenyl)-1H-pyrrolo[3,2-b]pyridin-2-yl]pyridin-3-yl}oxy)ethyl]-N-methylprop-2-enamide], for which the IC50 is 24.6 nM in test [1]; 76.3 nM in test [2]; 1280 nM in the test with BA/F3 (insSVD) cells (Mus musculus, BaF3, 48 h).
For `C=CC(=O)N(C)CCOc1cnccc1-c1[nH]c2cccnc2c1-c1cc(F)ccc1F` [Example 46, N-[2-({4-[3-(2,5-difluorophenyl)-1H-pyrrolo[3,2-b]pyridin-2-yl]pyridin-3-yl}oxy)ethyl]-N-methylprop-2-enamide] the same measures were 27.3 nM, 60.5 nM and 1150 nM.
As to `C=CC(=O)N(C)CCOc1cnccc1-c1[nH]c2cccnc2c1-c1cc(C)ccc1F` [Example 47, N-[2-({4-[3-(2-fluoro-5-methylphenyl)-1H-pyrrolo[3,2-b]pyridin-2-yl]pyridin-3-yl}oxy)ethyl]-N-methylprop-2-enamide], the IC50 in test [1] stood at 32.8 nM; in test [2], 19.6 nM; with BA/F3 (insSVD) cells (Mus musculus, BaF3, 48 h), 493 nM.
The corresponding values for `C=CC(=O)N(C)CCOc1cnccc1-c1[nH]c2cccnc2c1-c1cc(CC)ccc1F` [Example 48, N-[2-({4-[3-(5-ethyl-2-fluorophenyl)-1H-pyrrolo[3,2-b]pyridin-2-yl]pyridin-3-yl}oxy)ethyl]-N-methylprop-2-enamide] are 36.8 nM, 109 nM and 962 nM.
For `C=CC(=O)N(C)CCOc1cnccc1-c1[nH]c2cccnc2c1-c1cccc(C(F)(F)F)c1` [Example 49, N-methyl-N-{2-[(4-{3-[3-(trifluoromethyl)phenyl]-1H-pyrrolo[3,2-b]pyridin-2-yl}pyridin-3-yl)oxy]ethyl}prop-2-enamide] the same measures were 57.4 nM, 151 nM and 1930 nM.
The corresponding values for `C=CC(=O)N(C)CCOc1cnccc1-c1[nH]c2cccnc2c1-c1cc(C)cc(F)c1` [Example 50, N-[2-({4-[3-(3-fluoro-5-methylphenyl)-1H-pyrrolo[3,2-b]pyridin-2-yl]pyridin-3-yl}oxy)ethyl]-N-methylprop-2-enamide] are 63.7 nM, 131 nM and 1770 nM.

For the origin of these results see US20260035365A1, “1H-PYRROLO[3,2-B]PYRIDINE DERIVATIVES AS IRREVERSIBLE INHIBITORS OF MUTANT EGFR FOR THE TREATMENT OF CANCER” (Bayer Aktiengesellschaft, priority 2022, published 2026).
